The results in this text go back to patent US11419902B2, “Compositions comprising bacterial strains” (4D Pharma Research Limited, priority 2018, dated 2022).

One assay relates to PBMCs. Description: Cytokine analysis of PBMCs from healthy donors (multiplex immunoassay). The following applies: PBMC culture, 10% bacteria supernatant, 72 h. Format: cell-based, human. As to the method:
Frozen healthy human PBMCs were purchased from Stem Cells Technologies (Cambridge UK). Briefly cells were thaw and left to rest overnight in full growth media (RPMI 1640 with 10% FBS, 2 mM L. Glutamine, 55 μM 2-Mercapoethanol and 100 U/ml penicillin, 100 μg/ml streptomycin) in CO2 incubator at 37° C. For the experiment cells were plated at a density of 750,000 Cell/well in 48 well plates and treated in full growth media with 10% bacteria supernatants in the presence or absence of 1 ng/ml LPS. Cell culture media was added to untreated wells. Cells were left to rest for 72 h, thereafter cell free supernatants were collected and spun down for 3 minutes at 10,000 g at 4° C. Samples were stored at −80° C. for cytokine analysis.
PBMCs were treated as described in Example 5.
Cytokine quantification was conducted using a ProcartaPlex multiplex immunoassay following the manufacturer's recommendations (Thermo Fischer Scientific). Briefly, 50 μl of cell-free co-culture supernatants were used for cytokine quantification using a MAGPIX® MILLIPLEX® system (Merck) with the xPONENT software (Luminex, Austin, Tex., USA). Data was analysed using the MILLIPLEX® analyst software (Merck) using a 5-parameter logistic curve and background subtraction to convert mean fluorescence intensity to pg/ml values.

A further assay deals with colon. Description: Intestinal permeability assay (Ussing chambers). The assay is classed as in vivo. As to conditions: colon of mice fed with MRx0029. As to the method: Animals were allowed to habituate to their holding room for one week after arrival into the animal unit. They receive oral gavage (200 μL dose) of live biotherapeutics at a dose of 1×10^9 CFU for 6 consecutive days between 15:00 and 17:00. On day 7, the animals are decapitated, and tissues are harvested for experimentation. Animals were sacrificed in a random fashion regarding treatment and testing condition; sampling occurred between 9.00 a.m. and 2:30 p.m. Trunk blood was collected in potassium EDTA (Ethylene Diamine Tetra Acetic Acid) tubes and spun for 15 min at 4000 g. Plasma was isolated and stored at −80° C. for further analysis. The brain was quickly excised, dissected and each brain region was snap-frozen on dry ice and stored at −80° C. for further analysis. Spleen was removed, collected in 5 mL RPMI media (with L-glutamine and sodium bicarbonate, R8758 Sigma+10% FBS (F7524, Sigma)+1% Pen/Strep (P4333, Sigma)) and processed immediately after culls for ex-vivo immune stimulation. Intestinal tissue (2 3 cm segments of ileum and colon closest to the caecum were excised, and the furthest 1 cm 2 cm of tissue from the caecum were used) were mounted into the Ussing chambers for intestinal permeability assay. The caecum was removed, weighted and stored at −80° C. for SCFAs analysis.

Another assay deals with histone deacetylase. Description: Histone deacetylase activity in HT-29 cells. Format: cell-based. As to conditions: 10% cell free supernatant, 48 hours. As to the method: Cell free supernatants of stationary phase bacterial cultures were isolated by centrifugation and filtering in a 0.22 uM filter. HT-29 cells were used 3 days post confluence and stepped down in 1 mL DTS 24 hours prior to commencement of the experiment. The HT-29 cells were challenged with 10% cell free supernatant diluted in DTS and was is left to incubate for 48 hours. […] proteins were then extracted using the Sigma Aldrich […] extraction kit and samples were snap frozen prior to HDAC activity measurement. HDAC activity was assessed fluorometrically using the Sigma Aldrich (UK) kit.

For assay [1], the system named is ERK signalling (phosphorylated ERK1 and 2/total ERK). Description: ERK signalling in HT29 cell line (Western blot). The assay is classed as cell-based. The following applies: HT29 (V600E oncogenic mutation). As to the method: Following 24 h treatment with the appropriate drugs either in presence of 10% bacterial supernatant or absence (YCFA+), protein extracts were obtained by lysing cells in RIPA buffer (R0278; Sigma Aldrich) supplemented with protease inhibitors (cOmplete Protease Inhibitor Cocktail Tablets; Roche, Switzerland) and 1 mM/L sodium orthovanadate, 0.5 mM/L PMSF. Protein quantification was done by the BCA protein assay. Equal amounts of total protein (20 μg/lane) were then separated by SDS-PAGE on 4-15% gradient gel (BioRad) and transferred to polyvinylidene difluoride (PVDF) membranes (Thermo Fisher Scientific, Loughborough). […]
Proteins of interest were detected with the appropriate HRP-conjugated secondary antibody (1:10,000, Thermo Fisher Scientific, Loughborough), developed with the ECL Western blotting Super Signal PicoPlus substrate (34577; Thermo Fisher Scientific, Loughborough), and visualised in Chemidoc XRS Imager (BioRad).
(§1) The effects of the following treatments were assessed on the HT29 colorectal cancer cell line (V600E oncogenic mutation in BRAF): (1) MRx0029; (2) Vemurafenib (VEMU) in YFCA+ medium; (3) VEMU and MRx0029; (4) Azacytidine-C (Aza-c) in YCFA+ medium; (5) Aza-c and MRx0029; (6) VEMU, Aza-c and MRx0029.
In general terms: A western blot detects proteins with antibodies after separation by electrophoresis.

For the next assay, the system named is Caspase 3 (Casp3). Description: Caspase 3 expression in SH-SY5Y cells. Format: cell-based. As to conditions: undifferentiated SH-SY5Y cells, vs control. From the text:
The inventors measured the change in Casp3 expression in neuroblastoma cells.

Assay [2] has as its system HT29 colorectal cancer cell line. Description: Clonogenic survival of HT29 cell line. The assay is classed as cell-based. The following applies: HT29, relative to both negative controls (cell line only, and YCFA+ +DMSO). As to the method:
Cells were trypsinized and 200 cells/well were seeded in 12-well plates. After 48 h cells were treated with the appropriate drugs in absence (YCFA+) or presence of 10% bacterial supernatant and were re-fed every three days. On day 21 after seeding, cells were fixed in ice-cold methanol and stained with Crystal Violet blue. […] were counted and survival fraction was calculated as number of colonies divided by the number of plated cells (plating efficiency) of treated divided by the plating efficiency of control.
as §1

Another assay concerns GPR109a. Description: GPR109a RNA expression in differentiated Caco-2 cells (qPCR). Format: cell-based. (In general: Quantitative PCR measures a nucleic acid by following its amplification.)

On to Megasphaera massiliensis MRx0029, for which, in the assay with PBMCs, the “expression of IL-1β” value was “increased the expression”, the “expression of IL-6” value is given as “increased the expression”, the “expression of IL-10” value is “increased the expression” and the “expression of IL-23” value is recorded as “increased the expression”. In the assay with PBMCs, the “expression of MIP-3α” value was “increased the expression” and the “expression of TNF-α” value is “increased the expression”. In the assay on colon, the “permeability function in the colon” value is “decrease the permeability function”. In addition, the “levels of histone deacetylase activity” value in the assay with histone deacetylase is “able reduce the levels of histone deacetylase activity”. The ERK signalling result in assay [1] is reported as “inhibiting ERK signalling”. Further, in the assay on Caspase 3 (Casp3), the “expression of Casp3” value is “increased the expression of Casp3 threefold”. In addition, the clonogenic survival entry in assay [2] is on record as “decreased clonogenic survival”. Further, the “expression of GPR109a RNA with PMA” value in the assay on GPR109a (PMA plus supernatant vs PMA alone (or PMA in YCFA+ medium)) was “greater expression of GPR109a RNA”. Moreover, the “expression of GPR109a” value in the assay with GPR109a (without PMA) was “increased expression of GPR109a”.
